The results in this text go back to a melting point compilation (Tetko et al.; mined from patent text by program, amines drawn as free bases though some values may be those of a salt).

Regarding `FC(F)(F)c1cc(Br)c2nc(N3CCN(c4ncccc4C(F)(F)F)CC3)[nH]c2c1`, the melting point stood at 196 °C.

Molecule `O=C1[C@@H]2Cc3c([nH]c4ccccc34)[C@H](c3ccc4c(c3)OCO4)N2C(=O)N1Cc1ccccc1` (relative stereo) gave a melting point of 208 to 210 °C.

In the case of `C=C(C)C(=O)NCC(OC)OC`, the melting point is 30 to 32 °C.

`COc1cccc(CNc2nccc(-c3cc(N4CCN(CCCN(C)C)CC4)c4cc(OC)ccc4c3)n2)c1`: the melting point lay in the range of 70 to 75 °C.

For `Cc1cnc2c(C#N)c(C)nn2c1-c1cccnc1`, the melting point was in the range of 207 to 209 °C.

Consider `Cc1[nH]c(-c2nc3ccc(C(=O)c4ccccc4)cc3[nH]2)c(C)c1C(=O)O`, for which the melting point was > 300 °C.

For `O=C(NCCCCCn1ccnc1)c1ccc(Cl)s1`, the melting point lay in the range of 123 to 125 °C.

In the case of `NC(=O)c1cc(-c2ccc3nnn(Cc4ccc5ncccc5c4)c3n2)ccc1F`, the melting point lay within 262 to 264 °C.

Molecule `COC(=O)Cc1ccc(C(F)(F)F)cc1NC(C)=O` had a melting point of 92 to 94 °C.

`O=C(O)CCCCCCCCCCCCCCCCCCCN1C(=O)C=CC1=O` had a melting point of 104 to 106 °C.

As for `CN1N=C(c2ccccc2)C(C)(C)NC1=O`, the melting point was 128 to 130 °C.

`N#CCc1cccc2c(-c3ccccc3Cl)nccc12` displayed a melting point of 113 °C.

`COC(=O)C(O)C(NCc1ccccc1)c1ccc(Cl)cc1` (configuration not stated) returned a melting point of 106 to 108 °C.

Molecule `CCN1C(=O)C(C)(C)C(=O)N(C)c2cc(CN(CCn3c(=O)ccc4ccccc43)Cc3ccc(OC)nc3C)ccc21` registered a melting point of 143 to 144 °C.

For `Cc1cccc2c1NC(=O)C(CCCN1CCN(c3ccc(F)cc3)CC1)S2` (configuration not stated), the melting point lay in the range of 116 to 117 °C.

For the molecule `CC(C(=O)O)N1CCC(C)(CS)C1=O` (configuration not stated), the melting point lay in the range of 132 to 133 °C.

In turn, `CCOC(=O)C(=O)Nc1nccc2snc(NC(=O)C(=O)OCC)c12` registered a melting point of 168 °C.

Molecule `CC(=Cc1ccc(N(C)C)cc1)C(=O)O` yielded a melting point of 190 to 194 °C.

As to `O=C(O)C(Cc1ccccc1)Oc1ccc2cc(-c3cnc(-c4cn(Cc5ccccc5)c5ccccc45)o3)ccc2c1` (configuration not stated), the melting point lay within 125 to 127 °C.

Take `COC(=O)c1cc(C(=O)NC2CCOCC2)c2cc(Cc3ccc(F)cc3)cnc2c1O`: the melting point was 246 to 247 °C.

The molecule `Oc1c(Br)cc(-c2c3ccccc3c(I)c3sc4ccccc4c23)cc1Br` displayed a melting point of 221 to 222 °C.

Molecule `CCOC(=O)c1ccc(CCC(=O)CO)cc1` showed a melting point of 51 to 52 °C.

Turning to `COc1cc2c(cc1OC)C(CCCl)OCC2` (configuration not stated), the melting point lay within 161 to 163 °C.

In the case of `COc1cc(CO)ccc1C12CC3CC(CC(C3)C1)C2`, the melting point is 120 to 121 °C.

The molecule `c1ccc(-c2[nH]c3ccccc3c2CCC2CCNCC2)cc1` displayed a melting point of 183 °C.

For the molecule `Cc1c(Nc2ncc(Br)cc2C(=O)O)cccc1C(F)(F)F`, the melting point was 222 to 224 °C.

With `c1c(N2CCCC2)nc(N2CCCC2)nc1N1CCN(CCN2CCNCC2)CC1`, the melting point lay in the range of 148 to 149 °C.

`CC=CC(=O)Nc1c(C(O)(C(F)(F)F)C(F)(F)F)ccc2ccccc12` came in with a melting point of 216 to 217 °C.

`CC(=O)c1ccc2c(c1)OCC(=O)N2` gave a melting point of 197 to 198 °C.

For the molecule `CCOC(=O)c1c(C)nn2c(-c3cccnc3)ccnc12`, the melting point lay in the range of 145 to 146 °C.

The molecule `Nc1c(Br)cc(C2=NNC(=O)Cc3cc4c(cc32)OCO4)cc1Br` returned a melting point of 162 to 165 °C.

For the molecule `NCCCCCCOc1ccccc1C(=O)Nc1ccc(C(=O)N2CCCCc3ccccc32)cc1`, the melting point was 136 to 138 °C.

Take `CC(C)(C)N1C(=O)c2cnc(-c3ccccc3)nc2Nc2ccccc21`: the melting point lay within 221 to 222 °C.

Turning to `O=C(O)C(O)c1cccnc1` (configuration not stated), the melting point is 140 °C.

The molecule `NC(=O)Cc1cc(Oc2ccc3c(ccn3C(=O)Nc3cc(N4CCOCC4)cc(C(F)(F)F)c3)c2)ncn1` showed a melting point of 144 to 146 °C.

On to `OCCCCCCC(O)C(c1ccc(Cl)cc1Cl)n1ccnc1` (configuration not stated), for which the melting point was 74 to 76 °C.

In turn, `Cn1nc(S(C)=O)c(=O)c2ccccc21` (configuration not stated) yielded a melting point of 187 to 189 °C.

On to `CCCn1c(CCOC)nc2c(N)nc3cc(Oc4ccc(S(C)(=O)=O)cc4)ccc3c21`, for which the melting point lay in the range of 210 to 212 °C.

With `O=C(N[C@H]1CCN(C(=O)c2cc(C(F)(F)F)cc(C(F)(F)F)c2)[C@H](Cc2ccc(Cl)cc2)C1)c1cc(=O)c2cc(F)ccc2o1`, the melting point fell in the range of 215 to 218 °C.

As to `C=C(Cl)Cn1c(C)c(C)c2cnnc(OCc3ccccc3)c21`, the melting point lay within 88 to 90 °C.

`CON(CCCCn1c(C)nc2c(N)nc3ccccc3c21)C(N)=O`: the melting point lay within 158 to 160 °C.

`Cc1ccccc1C=CC(=O)c1c(C)n(CCN2CCOCC2)c2ccccc12` displayed a melting point of 131 to 135 °C.

In turn, `O=C(Nc1ccc(C2CCC(O)C2)cc1)OCc1ccccc1` (configuration not stated) displayed a melting point of 99 to 101 °C.

The molecule `COc1cc2c(cc1OS(=O)(=O)C(F)(F)F)[nH]c1cc(-c3ccccc3Cl)c3c(c12)C(=O)NC3=O` yielded a melting point of 248 to 252 °C.

For `CS(=O)(=O)c1ccc(-c2cc(C(F)(F)F)nn2-c2ccc(C#N)cc2)cc1F`, the melting point was in the range of 152 to 153 °C.

As for `NC1=NC(c2ccncc2)(c2cccc(-c3cccnc3F)c2)C2=NCCCN12` (configuration not stated), the melting point was 125 to 131 °C.

For the molecule `CC1(C)Cc2c(c(N3CCOCC3)nc3sc4c(NCc5cnc6ccccc6c5)ncnc4c23)CO1`, the melting point lay within 272 to 273 °C.

Molecule `CCCCOC(=O)Cn1cccc1-c1nc(-c2ccc(OC)cc2)c(-c2ccc(OC)cc2)s1` registered a melting point of 98 to 101 °C.

`Oc1ccc2c(c1)OC=C(CN1CCN(C(c3ccc(F)cc3)c3ccc(F)cc3)CC1)O2`: the melting point was found to be 190 °C.

`Cn1ccnc1Sc1ccc(Nc2c(C#N)cnc3cc(/C=C/CCCN4CCCC4)ccc23)cc1Cl` gave a melting point of 217 to 222 °C.

For `CN(c1ccccc1)c1ncccc1NC(=O)c1ccccc1Cl`, the melting point was in the range of 145 to 146 °C.

The molecule `OC(c1ccc2c(c1)CCN2)(C(F)F)C(F)(F)F` (configuration not stated) displayed a melting point of 129 to 132 °C.

The molecule `CSCC(C)NC(=O)c1c(I)cccc1C(=O)Nc1ccc(C2(C(F)(F)F)CC(c3ccc(Cl)cc3)=NO2)cc1C` (configuration not stated) came in with a melting point of 116 to 120 °C.

`COc1cc2c(cc1OC)C(c1c[nH]cn1)CCC2` (configuration not stated): the melting point was 140 °C.

In turn, `N#CC(=Cc1ccccc1F)C(O)C#N` (configuration not stated) gave a melting point of 122 °C.

For `O=C(O)CCCOc1ccc(N2CCN(c3ccncc3)CC2)cc1[N+](=O)[O-]`, the melting point was 219 to 220 °C.

`Cc1ccc(NC(=O)N2CC(C)(C)NC(C)(C)CC2=O)cc1` yielded a melting point of 126 °C.

For the molecule `CS(=O)c1ccc(-c2c(-c3ccncc3)nc3n2CCC3)cc1` (configuration not stated), the melting point is 180 to 182 °C.

Turning to `N#Cc1nn(-c2c(Cl)cc(Cl)cc2Cl)cc1C1CC1(Cl)Cl` (configuration not stated), the melting point was determined as 158 °C.

`N#Cc1cccc(OC2SCC(O)C(O)C2O)c1` (configuration not stated): the melting point was 130 to 135 °C.

`CCN(CCc1c[nH]c2ccc(F)cc12)C1COc2c(F)ccc(C(N)=O)c2C1` (configuration not stated) gave a melting point of 127 °C.

In the case of `O=C(O)c1ccc(C=CC(=O)N2CCc3c([nH]c4ccccc34)C2c2ccc3c(c2)OCO3)cc1` (configuration not stated), the melting point fell in the range of 254 to 256 °C.

A word on the melting point: it is the temperature, or range, at which the solid turns liquid.
